{"source": "ChEMBL document CHEMBL3885881", "about": "“DrugMatrix”", "organism": "Rattus norvegicus", "assay": "DrugMatrix - Regimen: Daily Repeat", "assay_type": "toxicity, organism-based, Sprague-Dawley", "parameters": "regimen Daily Repeat, gender Male, age 6-8 weeks", "settings": "in vivo, po, 41 mg/kg, route oral GAVAGE, dose level Low, vehicle 100 % WATER; for ABSOLUTE BASOPHIL / ABSOLUTE EOSINOPHIL / ABSOLUTE LYMPHOCYTE / ABSOLUTE MONOCYTE / ABSOLUTE SEGMENTED NEUTROPHIL / BASOPHIL / EOSINOPHIL / ERYTHROCYTE COUNT / HEMATOCRIT / HEMOGLOBIN / LEUKOCYTE COUNT / LYMPHOCYTE / MEAN CORPUSCULAR HEMOGLOBIN / MEAN CORPUSCULAR HEMOGLOBIN CONCENTRATION / MEAN CORPUSCULAR VOLUME / MONOCYTE / NEUTROPHIL / NUCLEATED RED BLOOD CELLS / PLATELET COUNT: tissue Blood; for ALANINE AMINOTRANSFERASE / ALBUMIN / ALKALINE PHOSPHATASE / ASPARTATE AMINOTRANSFERASE / BLOOD UREA NITROGEN / CARBON DIOXIDE / CHLORIDE / CHOLESTEROL / CREATINE PHOSPHOKINASE / CREATININE / GLUCOSE / LACTATE DEHYDROGENASE / LIPASE / PHOSPHORUS / POTASSIUM / SODIUM / TOTAL BILIRUBIN / TOTAL PROTEIN / URIC ACID: tissue Plasma"}
{"smiles": "CC(O)(P(=O)(O)O)P(=O)(O)O", "note": "[ETIDRONIC ACID]", "values": [{"measurement": "ABSOLUTE BASOPHIL", "setting": "72 h, time 3 day", "result": 0, "unit": "CELLS/uL"}, {"measurement": "ABSOLUTE EOSINOPHIL", "setting": "72 h, time 3 day", "result": 0, "unit": "CELLS/uL"}, {"measurement": "ABSOLUTE LYMPHOCYTE", "setting": "72 h, time 3 day", "result": 15847, "unit": "CELLS/uL"}, {"measurement": "ABSOLUTE MONOCYTE", "setting": "72 h, time 3 day", "result": 485, "unit": "CELLS/uL"}, {"measurement": "ABSOLUTE SEGMENTED NEUTROPHIL", "setting": "72 h, time 3 day", "result": 1868, "unit": "CELLS/uL"}, {"measurement": "BASOPHIL", "setting": "72 h, time 3 day", "result": 0, "unit": "%"}, {"measurement": "EOSINOPHIL", "setting": "72 h, time 3 day", "result": 0, "unit": "%"}, {"measurement": "ERYTHROCYTE COUNT", "setting": "72 h, time 3 day", "result": 5.74, "unit": "x10E6/uL"}, {"measurement": "HEMATOCRIT", "setting": "72 h, time 3 day", "result": 35.63, "unit": "%"}, {"measurement": "HEMOGLOBIN", "setting": "72 h, time 3 day", "result": 13.33, "unit": "G/DL"}, {"measurement": "LEUKOCYTE COUNT", "setting": "72 h, time 3 day", "result": 18.2, "unit": "x10E3/uL"}, {"measurement": "LYMPHOCYTE", "setting": "72 h, time 3 day", "result": 86.67, "unit": "%"}, {"measurement": "MEAN CORPUSCULAR HEMOGLOBIN", "setting": "72 h, time 3 day", "result": 23.27, "unit": "pg"}, {"measurement": "MEAN CORPUSCULAR HEMOGLOBIN CONCENTRATION", "setting": "72 h, time 3 day", "result": 37.43, "unit": "G/DL"}, {"measurement": "MEAN CORPUSCULAR VOLUME", "setting": "72 h, time 3 day", "result": 62.13, "unit": "fL"}, {"measurement": "MONOCYTE", "setting": "72 h, time 3 day", "result": 2.67, "unit": "%"}, {"measurement": "NEUTROPHIL", "setting": "72 h, time 3 day", "result": 10.67, "unit": "%"}, {"measurement": "NUCLEATED RED BLOOD CELLS", "setting": "72 h, time 3 day", "result": "0 /100WBC"}, {"measurement": "PLATELET COUNT", "setting": "72 h, time 3 day", "result": 1274.67, "unit": "x10E3/uL"}, {"measurement": "ALANINE AMINOTRANSFERASE", "setting": "72 h, time 3 day", "result": 42.33, "unit": "u/L"}, {"measurement": "ALBUMIN", "setting": "72 h, time 3 day", "result": 4.67, "unit": "G/DL"}, {"measurement": "ALKALINE PHOSPHATASE", "setting": "72 h, time 3 day", "result": 379, "unit": "u/L"}, {"measurement": "ASPARTATE AMINOTRANSFERASE", "setting": "72 h, time 3 day", "result": 79, "unit": "u/L"}, {"measurement": "BLOOD UREA NITROGEN", "setting": "72 h, time 3 day", "result": 20.67, "unit": "mg/dL"}, {"measurement": "CARBON DIOXIDE", "setting": "72 h, time 3 day", "result": 24, "unit": "mmol/L"}, {"measurement": "CHLORIDE", "setting": "72 h, time 3 day", "result": 100, "unit": "MEQ/L"}, {"measurement": "CHOLESTEROL", "setting": "72 h, time 3 day", "result": 62.33, "unit": "mg/dL"}, {"measurement": "CREATINE PHOSPHOKINASE", "setting": "72 h, time 3 day", "result": 167.33, "unit": "u/L"}, {"measurement": "CREATININE", "setting": "72 h, time 3 day", "result": 0.19, "unit": "mg/dL"}, {"measurement": "GLUCOSE", "setting": "72 h, time 3 day", "result": 153, "unit": "mg/dL"}, {"measurement": "LACTATE DEHYDROGENASE", "setting": "72 h, time 3 day", "result": 126, "unit": "u/L"}, {"measurement": "LIPASE", "setting": "72 h, time 3 day", "result": 9.33, "unit": "u/L"}, {"measurement": "PHOSPHORUS", "setting": "72 h, time 3 day", "result": 12.13, "unit": "mg/dL"}, {"measurement": "POTASSIUM", "setting": "72 h, time 3 day", "result": 7.21, "unit": "MEQ/L"}, {"measurement": "SODIUM", "setting": "72 h, time 3 day", "result": 143.1, "unit": "MEQ/L"}, {"measurement": "TOTAL BILIRUBIN", "setting": "72 h, time 3 day", "result": 0.2, "unit": "mg/dL"}, {"measurement": "TOTAL PROTEIN", "setting": "72 h, time 3 day", "result": 5.6, "unit": "G/DL"}, {"measurement": "URIC ACID", "setting": "72 h, time 3 day", "result": 1.7, "unit": "mg/dL"}, {"measurement": "ABSOLUTE BASOPHIL", "setting": "120 h, time 5 day", "result": 0, "unit": "CELLS/uL"}, {"measurement": "ABSOLUTE EOSINOPHIL", "setting": "120 h, time 5 day", "result": 0, "unit": "CELLS/uL"}, {"measurement": "ABSOLUTE LYMPHOCYTE", "setting": "120 h, time 5 day", "result": 11460.33, "unit": "CELLS/uL"}, {"measurement": "ABSOLUTE MONOCYTE", "setting": "120 h, time 5 day", "result": 399, "unit": "CELLS/uL"}, {"measurement": "ABSOLUTE SEGMENTED NEUTROPHIL", "setting": "120 h, time 5 day", "result": 1374, "unit": "CELLS/uL"}, {"measurement": "BASOPHIL", "setting": "120 h, time 5 day", "result": 0, "unit": "%"}, {"measurement": "EOSINOPHIL", "setting": "120 h, time 5 day", "result": 0, "unit": "%"}, {"measurement": "ERYTHROCYTE COUNT", "setting": "120 h, time 5 day", "result": 5.69, "unit": "x10E6/uL"}, {"measurement": "HEMATOCRIT", "setting": "120 h, time 5 day", "result": 35, "unit": "%"}, {"measurement": "HEMOGLOBIN", "setting": "120 h, time 5 day", "result": 13.13, "unit": "G/DL"}, {"measurement": "LEUKOCYTE COUNT", "setting": "120 h, time 5 day", "result": 13.23, "unit": "x10E3/uL"}, {"measurement": "LYMPHOCYTE", "setting": "120 h, time 5 day", "result": 86.67, "unit": "%"}, {"measurement": "MEAN CORPUSCULAR HEMOGLOBIN", "setting": "120 h, time 5 day", "result": 23.1, "unit": "pg"}, {"measurement": "MEAN CORPUSCULAR HEMOGLOBIN CONCENTRATION", "setting": "120 h, time 5 day", "result": 37.57, "unit": "G/DL"}, {"measurement": "MEAN CORPUSCULAR VOLUME", "setting": "120 h, time 5 day", "result": 61.53, "unit": "fL"}, {"measurement": "MONOCYTE", "setting": "120 h, time 5 day", "result": 3, "unit": "%"}, {"measurement": "NEUTROPHIL", "setting": "120 h, time 5 day", "result": 10.33, "unit": "%"}, {"measurement": "NUCLEATED RED BLOOD CELLS", "setting": "120 h, time 5 day", "result": "0 /100WBC"}, {"measurement": "PLATELET COUNT", "setting": "120 h, time 5 day", "result": 1338.67, "unit": "x10E3/uL"}, {"measurement": "ALANINE AMINOTRANSFERASE", "setting": "120 h, time 5 day", "result": 43, "unit": "u/L"}, {"measurement": "ALBUMIN", "setting": "120 h, time 5 day", "result": 4.23, "unit": "G/DL"}, {"measurement": "ALKALINE PHOSPHATASE", "setting": "120 h, time 5 day", "result": 323.33, "unit": "u/L"}, {"measurement": "ASPARTATE AMINOTRANSFERASE", "setting": "120 h, time 5 day", "result": 88.33, "unit": "u/L"}, {"measurement": "BLOOD UREA NITROGEN", "setting": "120 h, time 5 day", "result": 18.67, "unit": "mg/dL"}, {"measurement": "CARBON DIOXIDE", "setting": "120 h, time 5 day", "result": 23, "unit": "mmol/L"}, {"measurement": "CHLORIDE", "setting": "120 h, time 5 day", "result": 108.5, "unit": "MEQ/L"}, {"measurement": "CHOLESTEROL", "setting": "120 h, time 5 day", "result": 50, "unit": "mg/dL"}, {"measurement": "CREATINE PHOSPHOKINASE", "setting": "120 h, time 5 day", "result": 367.67, "unit": "u/L"}, {"measurement": "CREATININE", "setting": "120 h, time 5 day", "result": 0.18, "unit": "mg/dL"}, {"measurement": "GLUCOSE", "setting": "120 h, time 5 day", "result": 149.33, "unit": "mg/dL"}, {"measurement": "LACTATE DEHYDROGENASE", "setting": "120 h, time 5 day", "result": 265.67, "unit": "u/L"}, {"measurement": "LIPASE", "setting": "120 h, time 5 day", "result": 8.5, "unit": "u/L"}, {"measurement": "PHOSPHORUS", "setting": "120 h, time 5 day", "result": 10.7, "unit": "mg/dL"}, {"measurement": "POTASSIUM", "setting": "120 h, time 5 day", "result": 5.74, "unit": "MEQ/L"}, {"measurement": "SODIUM", "setting": "120 h, time 5 day", "result": 146.55, "unit": "MEQ/L"}, {"measurement": "TOTAL BILIRUBIN", "setting": "120 h, time 5 day", "result": 0.2, "unit": "mg/dL"}, {"measurement": "TOTAL PROTEIN", "setting": "120 h, time 5 day", "result": 5.8, "unit": "G/DL"}, {"measurement": "URIC ACID", "setting": "120 h, time 5 day", "result": 1.53, "unit": "mg/dL"}]}
